Results from patent publication US9527838B2, “2-pyridinecarboxamide derivatives, compositions containing such compounds, and methods of treatment” (priority 2012, dated 2016).
pEC50: −log10 of the molar value.

Molecular target: Recombinant human liver glucokinase (Homo sapiens (Human), UniProt P35557)
Experiment: Glucokinase activation assay (G6PDH-coupled, Thio-NADH absorbance at 405 nm)
Type: biochemical
Conditions: for pEC50: 2.5 mM Glu, 30° C.
Excerpt: The glucokinase activity can, for instance, be determined without directly measuring glucose-6-phosphate by measuring the amount of Thio-NADH generated during the production of phosphogluconolactone from glucose-6-phosphate by a reporter enzyme glucose-6-phosphate dehydrogenase.
To test the exemplified compounds, the following assay was employed. Recombinant human liver glucokinase was expressed as a FLAG fusion protein in E. coli, and purified on […] M2 AFFINITY GEL (Sigma). The assay was carried out at 30° C. in a 96-well plate. In the plate was distributed 69 μl each of assay buffer (25 mM Hepes Buffer: pH=7.2, 2 mM MgCl2, 1 mM ATP, 0.5 mM TNAD, 1 mM dithiothreitol), to which was added 1 μl of a DMSO solution of the compound or DMSO as control. Then, 20 μl of pre-ice-cooled enzyme mixture (FLAG-GK, 20 U/ml G6PDH) was distributed thereto, to which was added 10 μl of 25 mM glucose as substrate to initiate the reaction (final glucose concentration=2.5 mM). After starting the reaction, the absorbance at 405 nm was measured every 30 seconds for 10 minutes to evaluate the compound based on the initial increase for 5 minutes. FLAG-GK was added so that the increase of absorbance after 5 minutes fell between 0.05 to 0.1 in the presence of 1% DMSO.
The OD values of the respective compounds were measured in the respective concentrations, wherein the OD value of DMSO as control is regarded as 100%.

Recombinant human liver glucokinase, sequence (P35557 other isoform, or with tags, fused parts or gaps): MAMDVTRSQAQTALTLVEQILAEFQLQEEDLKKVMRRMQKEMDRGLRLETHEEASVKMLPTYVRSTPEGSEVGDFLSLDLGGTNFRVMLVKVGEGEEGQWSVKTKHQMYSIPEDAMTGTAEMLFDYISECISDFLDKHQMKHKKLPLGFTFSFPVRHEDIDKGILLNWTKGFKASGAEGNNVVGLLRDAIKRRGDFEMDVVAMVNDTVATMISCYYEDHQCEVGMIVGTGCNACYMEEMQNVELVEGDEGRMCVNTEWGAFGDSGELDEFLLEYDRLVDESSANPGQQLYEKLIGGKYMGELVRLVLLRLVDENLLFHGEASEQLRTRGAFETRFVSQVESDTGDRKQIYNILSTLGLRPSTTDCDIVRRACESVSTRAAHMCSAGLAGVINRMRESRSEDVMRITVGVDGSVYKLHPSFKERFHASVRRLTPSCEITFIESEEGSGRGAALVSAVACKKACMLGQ

SMILES | Emax [%] | pEC50
CCOP(=O)(Cc1cnc(NC(=O)c2nc(Sc3nncn3C)ccc2Sc2ccc(C(F)(F)F)cc2)s1)OCC [Example 45, Diethyl [(2-{[(6-[(4-methyl-4H-1,2,4-triazol-3-yl)sulfanyl]-3-{[4-(trifluoromethyl)phenyl]sulfanyl}pyridin-2-yl)carbonyl]amino}-1,3-thiazol-5-yl)methyl]phosphonate] | 273 | 6.46
COc1ccc(Sc2ccc(Sc3nncn3C)nc2C(=O)Nc2ncc(SC(C)(C)C(=O)O)s2)cc1 [Example 4, 2-({2-[({3-[(4-methoxyphenyl)sulfanyl]-6-[(4-methyl-4H-1,2,4-triazol-3-yl)sulfanyl]pyridin-2-yl}carbonyl)amino]-1,3-thiazol-5-yl}sulfanyl)-2-methylpropanoic acid] | 417 | 7.19
COC(=O)CCc1cnc(NC(=O)c2nc(Sc3nncn3C)ccc2Sc2ccc(OC)cc2)s1 [Example 7, Methyl 3-{2-[({3-[(4-methoxyphenyl)sulfanyl]-6-[(4-methyl-4H-1,2,4-triazol-3-yl)sulfanyl]pyridin-2-yl}carbonyl)amino]-1,3-thiazol-5-yl}propanoate] | 550 | 7.63
CCOP(=O)(Cc1cnc(NC(=O)c2nc(Sc3nncn3C)ccc2Sc2ccc(F)cc2)s1)OCC [Example 26, Diethyl ({2-[({3-[(4-fluorophenyl)sulfanyl]-6-[(4-methyl-4H-1,2,4-triazol-3-yl)sulfanyl]pyridin-2-yl}carbonyl)amino]-1,3-thiazol-5-yl}methyl)phosphonate] | 377 | 6.87
Cn1cnnc1Sc1ccc(Sc2ccc(F)cc2)c(C(=O)Nc2ncc(SCC(=O)O)s2)n1 [Example 19, ({2-[({3-[(4-Fluorophenyl)sulfanyl]-6-[(4-methyl-4H-1,2,4-triazol-3-yl)sulfanyl]pyridin-2-yl}carbonyl)amino]-1,3-thiazol-5-yl}sulfanyl)acetic acid] | 426 | 7.64
COc1ccc(Sc2ccc(Sc3nncn3C)nc2C(=O)Nc2ncc(SCC(=O)O)s2)cc1 [Example 2, ({2-[({3-[(4-methoxyphenyl)sulfanyl]-6-[(4-methyl-4H-1,2,4-triazol-3-yl)sulfanyl]pyridin-2-yl}carbonyl)amino]-1,3-thiazol-5-yl}sulfanyl)acetic acid] | 446 | 7.25
CCOC(=O)Cc1nc(NC(=O)c2nc(Sc3ccc(F)cc3)ccc2Sc2ccc(F)cc2)sc1Cl [Example 29, Ethyl {2-[({3,6-bis[(4-fluorophenyl)sulfanyl]pyridin-2-yl}carbonyl)amino]-5-chloro-1,3-thiazol-4-yl}acetate] | 158 | –
CCOC(=O)Cc1nc(NC(=O)c2nc(Sc3nncn3C)ccc2Sc2ccc(F)cc2)sc1Cl [Example 24, Ethyl {5-chloro-2-[({3-[(4-fluorophenyl)sulfanyl]-6-[(4-methyl-4H-1,2,4-triazol-3-yl)sulfanyl]pyridin-2-yl}carbonyl)amino]-1,3-thiazol-4-yl}acetate] | 378 | 8.10
CCOC(=O)CSc1cnc(NC(=O)c2nc(Sc3nncn3C)ccc2Sc2ccc(C(F)(F)F)cc2)s1 [Example 43, Ethyl [(2-{[(6-[(4-methyl-4H-1,2,4-triazol-3-yl)sulfanyl]-3-{[4-(trifluoromethyl)phenyl]sulfanyl}pyridin-2-yl)carbonyl]amino}-1,3-thiazol-5-yl)sulfanyl]acetate] | 384 | 7.55
O=C(O)Cc1csc(NC(=O)c2nc(Sc3ccccn3)ccc2Sc2ccc(F)cc2)n1 [Example 34, {2-[({3-[(4-Fluorophenyl)sulfanyl]-6-(pyridin-2-ylsulfanyl)pyridin-2-yl}carbonyl)amino]-1,3-thiazol-4-yl}acetic acid] | 762 | 6.38
Cn1cnnc1Sc1ccc(Sc2ccc(Cl)c(Cl)c2)c(C(=O)Nc2ncc(SCC(=O)O)s2)n1 [Example 52, ({2-[({3-[(3,4-Dichlorophenyl)sulfanyl]-6-[(4-methyl-4H-1,2,4-triazol-3-yl)sulfanyl]pyridin-2-yl}carbonyl)amino]-1,3-thiazol-5-yl}sulfanyl)acetic acid] | 431 | 7.78
CCOC(=O)C(C)(C)CSc1cnc(NC(=O)c2nc(Sc3ccccn3)ccc2Sc2ccc(F)cc2)s1 [Example 37, Ethyl 3-({2-[({3-[(4-fluorophenyl)sulfanyl]-6-(pyridin-2-ylsulfanyl)pyridin-2-yl}carbonyl)amino]-1,3-thiazol-5-yl}sulfanyl)-2,2-dimethylpropanoate] | 450 | 6.89
CCOC(=O)Cc1nc(NC(=O)c2nc(Sc3nncn3C)ccc2Sc2ccc(Cl)c(Cl)c2)sc1Cl [Example 53, Ethyl {5-chloro-2-[({3-[(3,4-dichlorophenyl)sulfanyl]-6-[(4-methyl-4H-1,2,4-triazol-3-yl)sulfanyl]pyridin-2-yl}carbonyl)amino]-1,3-thiazol-4-yl}acetate] | 426 | 8.12
CCOC(=O)C(C)(C)CSc1cnc(NC(=O)c2nc(Sc3nncn3C)ccc2Sc2ccc(F)cc2)s1 [Example 20] | 460 | –
COc1ccc(Sc2ccc(Sc3nncn3C)nc2C(=O)Nc2ncc(SCC(C)(C)C(=O)O)s2)cc1 [Example 6, 3-({2-[({3-[(4-methoxyphenyl)sulfanyl]-6-[(4-methyl-4H-1,2,4-triazol-3-yl)sulfanyl]pyridin-2-yl}carbonyl)amino]-1,3-thiazol-5-yl}sulfanyl)-2,2-dimethylpropanoic acid] | 425 | 7.80
CNC(=O)CSc1cnc(NC(=O)c2nc(Sc3nncn3C)ccc2Sc2ccc(OC)cc2)s1 [Example 3, 3-[(4-methoxyphenyl)sulfanyl]-N-(5-{[2-(methylamino)-2-oxoethyl]sulfanyl}-1,3-thiazol-2-yl)-6-[(4-methyl-4H-1,2,4-triazol-3-yl)sulfanyl]pyridine-2-carboxamide] | 572 | 7.97
CCOC(=O)CSc1cnc(NC(=O)c2nc(Sc3nncn3C)ccc2Sc2ccc(Cl)c(Cl)c2)s1 [Example 51, Ethyl ({2-[({3-[(3,4-dichlorophenyl)sulfanyl]-6-[(4-methyl-4H-1,2,4-triazol-3-yl)sulfanyl]pyridin-2-yl}carbonyl)amino]-1,3-thiazol-5-yl}sulfanyl)acetate] | 479 | 8.21
Cn1cnnc1Sc1ccc(Sc2ccc(C(F)(F)F)cc2)c(C(=O)Nc2nc(CC(=O)O)c(Cl)s2)n1 [Example 42, (5-Chloro-2-{[(6-[(4-methyl-4H-1,2,4-triazol-3-yl)sulfanyl]-3-{[4-(trifluoromethyl)phenyl]sulfanyl}pyridin-2-yl)carbonyl]amino}-1,3-thiazol-4-yl)acetic acid] | 466 | 7.36
CCOP(=O)(Cc1cnc(NC(=O)c2nc(Sc3nncn3C)ccc2Sc2ccc(Cl)c(Cl)c2)s1)OCC [Example 50] | 379 | 7.24
CC(C)(CSc1cnc(NC(=O)c2nc(Sc3ccccn3)ccc2Sc2ccc(F)cc2)s1)C(=O)O [Example 38, 3-({2-[({3-[(4-Fluorophenyl)sulfanyl]-6-(pyridin-2-ylsulfanyl)pyridin-2-yl}carbonyl)amino]-1,3-thiazol-5-yl}sulfanyl)-2,2-dimethylpropanoic acid] | 550 | 7.49
